Results reported in patent US11878975B2, “Substituted indole compounds useful as TLR inhibitors” (BRISTOL-MYERS SQUIBB COMPANY, priority 2017, dated 2024).

Experiments:
Assay type in all cases: cell-based
human TLR7 = molecular target: T1, human TLR7 (Homo sapiens, UniProt Q9NYK1); experiment: TLR7 inhibition reporter assay (HEK-Blue cells, SEAP reporter, gardiquimod stimulation); conditions: HEK-Blue cells overexpressing human TLR7, SEAP reporter, gardiquimod 7.5 μM
T1 construct: host or cells: HEK-Blue cells
T1 sequence (Q9NYK1 27-1049): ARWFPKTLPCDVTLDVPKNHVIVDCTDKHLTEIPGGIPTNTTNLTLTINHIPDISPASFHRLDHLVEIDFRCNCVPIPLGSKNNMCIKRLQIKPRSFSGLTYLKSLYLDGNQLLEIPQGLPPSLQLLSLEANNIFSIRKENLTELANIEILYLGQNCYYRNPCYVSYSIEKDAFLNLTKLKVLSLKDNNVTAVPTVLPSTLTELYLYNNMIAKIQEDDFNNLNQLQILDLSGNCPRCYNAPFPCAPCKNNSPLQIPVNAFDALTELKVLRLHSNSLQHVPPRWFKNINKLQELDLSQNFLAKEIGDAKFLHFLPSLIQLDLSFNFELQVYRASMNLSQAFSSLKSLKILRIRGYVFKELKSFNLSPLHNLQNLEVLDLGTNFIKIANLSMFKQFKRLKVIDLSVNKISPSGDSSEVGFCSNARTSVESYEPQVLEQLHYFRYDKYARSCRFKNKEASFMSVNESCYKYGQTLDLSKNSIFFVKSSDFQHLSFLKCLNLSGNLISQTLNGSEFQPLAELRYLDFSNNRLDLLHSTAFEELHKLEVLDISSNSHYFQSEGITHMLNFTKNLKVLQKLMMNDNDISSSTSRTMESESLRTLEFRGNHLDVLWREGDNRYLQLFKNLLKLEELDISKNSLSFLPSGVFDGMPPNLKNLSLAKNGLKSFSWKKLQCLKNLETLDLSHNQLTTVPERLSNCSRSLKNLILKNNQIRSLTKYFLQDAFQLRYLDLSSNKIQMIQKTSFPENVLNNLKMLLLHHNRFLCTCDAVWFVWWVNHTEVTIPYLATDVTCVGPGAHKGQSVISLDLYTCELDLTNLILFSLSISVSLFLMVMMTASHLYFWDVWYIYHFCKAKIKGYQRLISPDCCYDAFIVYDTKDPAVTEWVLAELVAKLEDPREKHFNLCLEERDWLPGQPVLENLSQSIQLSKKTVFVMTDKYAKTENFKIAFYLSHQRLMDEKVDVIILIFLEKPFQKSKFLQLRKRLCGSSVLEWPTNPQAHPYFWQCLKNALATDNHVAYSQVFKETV
Summary of the method: (§1)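 HEK-Blue cells with NF-κB/AP-1-driven SEAP reporter, pre-treated 30 min at room temperature with compound (0.05 nM-50 μM). Stimulants: gardiquimod 7.5 μM (TLR7), R848 15.9 μM (TLR8) or ODN2006 5 nM (TLR9). SEAP measured after 22 h at 37° C.; percent inhibition versus agonist-plus-DMSO and known-inhibitor wells.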

human TLR9 = molecular target: T2, human TLR9 (Homo sapiens, UniProt Q9NR96); experiment: TLR9 inhibition reporter assay (HEK-Blue cells, SEAP reporter, ODN2006 stimulation); conditions: HEK-Blue cells overexpressing human TLR9, SEAP reporter, ODN2006 5 nM
T2 construct: host or cells: HEK-Blue cells
T2 sequence (Q9NR96 26-1032): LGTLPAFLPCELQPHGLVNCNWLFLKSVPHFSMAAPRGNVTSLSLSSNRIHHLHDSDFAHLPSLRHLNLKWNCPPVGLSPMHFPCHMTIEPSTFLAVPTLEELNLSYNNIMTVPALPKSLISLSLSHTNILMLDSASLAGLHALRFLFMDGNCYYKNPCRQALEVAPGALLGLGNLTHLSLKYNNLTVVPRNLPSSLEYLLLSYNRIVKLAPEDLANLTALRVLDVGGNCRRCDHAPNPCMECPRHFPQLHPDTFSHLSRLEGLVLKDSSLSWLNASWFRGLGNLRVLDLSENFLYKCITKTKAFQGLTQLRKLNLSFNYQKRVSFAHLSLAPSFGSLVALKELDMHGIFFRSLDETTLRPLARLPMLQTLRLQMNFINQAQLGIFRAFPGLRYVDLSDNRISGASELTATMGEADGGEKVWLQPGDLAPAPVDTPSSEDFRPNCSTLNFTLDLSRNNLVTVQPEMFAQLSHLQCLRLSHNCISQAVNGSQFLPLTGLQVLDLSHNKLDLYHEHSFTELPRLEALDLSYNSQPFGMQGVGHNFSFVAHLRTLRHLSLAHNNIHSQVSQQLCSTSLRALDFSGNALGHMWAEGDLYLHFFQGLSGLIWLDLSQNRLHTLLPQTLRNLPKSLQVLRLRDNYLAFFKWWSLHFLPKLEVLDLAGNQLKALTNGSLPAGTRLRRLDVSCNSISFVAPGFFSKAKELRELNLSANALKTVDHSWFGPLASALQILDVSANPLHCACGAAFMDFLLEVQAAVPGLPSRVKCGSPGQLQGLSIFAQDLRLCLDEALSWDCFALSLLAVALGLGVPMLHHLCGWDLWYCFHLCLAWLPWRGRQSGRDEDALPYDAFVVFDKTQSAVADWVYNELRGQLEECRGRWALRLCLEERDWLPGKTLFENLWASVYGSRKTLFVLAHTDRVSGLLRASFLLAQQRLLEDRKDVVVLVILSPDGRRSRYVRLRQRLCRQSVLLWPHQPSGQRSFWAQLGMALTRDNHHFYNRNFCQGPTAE
Summary of the method: as §1

human TLR8 = molecular target: T3, human TLR8 (Homo sapiens, UniProt Q9NR97); experiment: TLR8 inhibition reporter assay (HEK-Blue cells, SEAP reporter, R848 stimulation); conditions: HEK-Blue cells overexpressing human TLR8, SEAP reporter, R848 15.9 μM
T3 construct: host or cells: HEK-Blue cells
T3 sequence (Q9NR97 27-1041): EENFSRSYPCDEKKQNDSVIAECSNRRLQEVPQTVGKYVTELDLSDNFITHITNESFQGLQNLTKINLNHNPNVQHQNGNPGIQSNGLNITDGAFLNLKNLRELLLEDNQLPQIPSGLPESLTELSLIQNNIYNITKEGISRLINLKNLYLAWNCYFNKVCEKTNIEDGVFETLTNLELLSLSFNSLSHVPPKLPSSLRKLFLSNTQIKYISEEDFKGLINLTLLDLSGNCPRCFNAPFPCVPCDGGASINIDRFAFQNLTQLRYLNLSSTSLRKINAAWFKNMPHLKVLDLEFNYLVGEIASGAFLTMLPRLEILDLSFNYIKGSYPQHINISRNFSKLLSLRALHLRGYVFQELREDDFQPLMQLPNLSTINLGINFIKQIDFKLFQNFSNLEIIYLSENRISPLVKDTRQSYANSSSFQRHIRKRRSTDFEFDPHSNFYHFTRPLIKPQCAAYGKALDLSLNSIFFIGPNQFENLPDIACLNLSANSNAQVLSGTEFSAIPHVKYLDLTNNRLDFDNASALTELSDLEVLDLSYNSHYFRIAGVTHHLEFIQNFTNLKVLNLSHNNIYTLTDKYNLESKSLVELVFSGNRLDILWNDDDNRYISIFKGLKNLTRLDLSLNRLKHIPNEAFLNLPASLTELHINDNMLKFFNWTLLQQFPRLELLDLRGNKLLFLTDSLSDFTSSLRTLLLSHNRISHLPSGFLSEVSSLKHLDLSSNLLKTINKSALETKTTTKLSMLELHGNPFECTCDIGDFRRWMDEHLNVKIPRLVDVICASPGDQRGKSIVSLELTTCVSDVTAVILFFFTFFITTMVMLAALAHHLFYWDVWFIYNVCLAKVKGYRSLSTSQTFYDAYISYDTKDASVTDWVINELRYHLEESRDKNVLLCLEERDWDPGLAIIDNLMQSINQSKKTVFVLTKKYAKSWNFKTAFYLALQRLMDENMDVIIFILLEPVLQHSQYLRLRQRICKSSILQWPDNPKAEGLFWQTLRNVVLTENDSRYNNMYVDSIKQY
Summary of the method: as §1

Compound	IC50 (human TLR7) [nM]	IC50 (human TLR9) [nM]	IC50 (human TLR8) [nM]
Cc1cc(-c2[nH]c3ccc(CCN4CCOCC4)cc3c2C(C)C)cn(C)c1=O [Example 403]	36	23000	7.5
CNC(=O)CN1CCCC(c2ccc3[nH]c(-c4cn5ncnc5c(C)c4C)c(C(C)C)c3c2)C1 (stereo not drawn) [Example 231]	9	17300	4.6
Cc1c(-c2[nH]c3ccc(C4CC(NC(=O)CN(C)C)C4)cc3c2C(C)C)cn2ncnc2c1C (stereo not drawn) [Example 573]	3	12600	2.3
Cc1cc(-c2[nH]c3ccc(C4CCCNC4)cc3c2C(C)C)cc(C)n1 (stereo not drawn) [Example 187]	2	274	3.9
Cc1c(-c2[nH]c3ccc(C4CC(NCCS(C)(=O)=O)C4)cc3c2C(C)C)cn(C)c(=O)c1C (stereo not drawn) [Example 494]	5	12000	0.48
Cc1cc(-c2[nH]c3ccc([C@H]4C[C@H]4C(=O)N4CC5CNCC5C4)cc3c2C(C)C)ccn1 (stereo partly drawn) [Example 455]	188	326	16
COc1cc(-c2[nH]c3ccc(C4CCCN(C(=O)C5CCN(C)CC5)C4)cc3c2C(C)C)cn2ncnc12 (stereo not drawn) [Example 194]	6	12000	23
COc1cc(-c2[nH]c3ccc(C4CCCN(C(C)C)C4)cc3c2C(C)C)cn2ncnc12 (stereo not drawn) [Example 236, 6-(3-isopropyl-5-(1-isopropylpiperidin-3-yl)-1H-indol-2-yl)-8-methoxy-[1,2,4]triazolo[1,5-a]pyridine]	1	1250	0.46
Cc1c(-c2[nH]c3ccc(C4CNCCO4)cc3c2C(C)C)cn2ncnc2c1C (stereo not drawn) [Example 286]	1	5390	0.73
Cc1c(-c2[nH]c3ccc(C4CN(CC5(C)COC5)C4)cc3c2C(C)C)cn2cnnc2c1C [Example 536]	26	11000	21
COc1cc(-c2[nH]c3ccc(C4CNCCO4)cc3c2C(C)C)cn2ncnc12 (stereo not drawn) [Example 284]	1	1820	0.85
Cc1c(-c2[nH]c3ccc(C4CCC(NC5COC5)CC4)cc3c2C(C)C)cn(C)c(=O)c1C (stereo not drawn) [Example 478]	20	10200	7.6
CNC(=O)CN1CC(c2ccc3[nH]c(-c4cc(C)c5ncnn5c4)c(C(C)C)c3c2)C1 [Example 260, 2-(3-(3-isopropyl-2-(8-methyl-[1,2,4]triazolo[1,5-a]pyridin-6-yl)-1H-indol-5-yl)azetidin-1-yl)-N-methylacetamide]	2	5250	3.9
Cc1c(-c2[nH]c3ccc(CC4CN(CC(=O)N(C)C)C4)cc3c2C(C)C)cn2ncnc2c1C [Example 400]	18	2820	5.1

More lines, in order of falling IC50 (human TLR7), values ahead:

IC50 (human TLR7) [nM]	IC50 (human TLR9) [nM]	IC50 (human TLR8) [nM]	Compound
1	1920	3.1	COc1cc(-c2[nH]c3ccc(C4CCC(N5CCC5)CC4)cc3c2C(C)C)cn2ncnc12 (stereo not drawn) [Example 77]
0.64	468	0.9	COc1cc(-c2[nH]c3ccc(C4CCC(N(C)C(C)C)C4)cc3c2C(C)C)cn2ncnc12 (single isomer, unassigned) [Example 276, N-isopropyl-3-(3-isopropyl-2-(8-methoxy-[1,2,4]triazolo[1,5-a]pyridin-6-yl)-1H-indol-5-yl)-N-methylcyclopentan-1-amine]
0.61	3160	0.52	Cc1c(-c2[nH]c3ccc(C4CNCCO4)cc3c2C(C)C)cn2ncnc2c1C (stereo not drawn) [Example 288]
0.56	2110	1.2	CNC(=O)CNC1CCC(c2ccc3[nH]c(-c4cc(C)c5ncnn5c4)c(C(C)C)c3c2)CC1 (single isomer, unassigned) [Example 162, 2-((4-(3-isopropyl-2-(8-methyl-[1,2,4]triazolo[1,5-a]pyridin-6-yl)-1H-indol-5-yl)cyclohexyl)amino)-N-methylacetamide]
0.43	2300	4.6	Cc1cc(-c2[nH]c3ccc(C4CCC(N(C)C(=O)CN(C)C)CC4)cc3c2C(C)C)cn2ncnc12 (stereo not drawn) [Example 149]
0.43	1490	5.1	COc1cc(-c2[nH]c3ccc(C4CCC(N(C)C(=O)CN(C)C)CC4)cc3c2C(C)C)cn2ncnc12 (stereo not drawn) [Example 147, 2-(dimethylamino)-N-(4-(3-isopropyl-2-(8-methoxy-[1,2,4]triazolo[1,5-a]pyridin-6-yl)-1H-indol-5-yl)cyclohexyl)-N-methylacetamide]
0.38	4020	1.1	Cc1cc(-c2[nH]c3ccc(C4CNCCO4)cc3c2C(C)C)cn2ncnc12 (stereo not drawn) [Example 281, 2-(3-isopropyl-2-(8-methyl-[1,2,4]triazolo[1,5-a]pyridin-6-yl)-1H-indol-5-yl)morpholine]
0.23	1890	0.71	Cc1cc(-c2[nH]c3ccc(C4CCC(N5CCOCC5)CC4)cc3c2C(C)C)cn2ncnc12 (stereo not drawn) [Example 102]
